The subject of assay [1] is CIGR1 gene and CIGR2 gene. Put plainly: Effect of inhibitors on induction of CIGR1 and CIGR2 genes by chitin heptamer in cultured rice cells. The following applies: inhibitor added ten minutes before; okadaic acid 1 μM, lavendustin A 30 μM, K-252a 20 μM. The class given is cell-based. On the procedure:
(§1) FIG. 11 depicts photographs representing the effects of protein kinase inhibitors on elicitor response and gibberellin response. The following compounds were added ten minutes before the treatment with chitin heptamer (GN7) or gibberellin (GA3). (A): the positive control of the elicitor response; (B): okadaic acid (1 μM); (C), lavendustin A (30 μM); (D), K-252a (20 μM).
(§2) In addition, the effects of various inhibitors on the inductions by gibberellin and elicitors of CIGR1 gene and CIGR2 gene in the cultured rice cells were examined. Referring to the results of Kuo et al., cells pretreated with okadaic acid were tested. […] From these observations, protein phosphatase was presumed to be involved in signal transduction from gibberellin to CIGR1 gene and CIGR2 gene in cultured rice cells. Following these experiments, the effects of protein kinase inhibitors were studied.

The subject of assay [2] is CIGR1 gene and CIGR2 gene. As to the kind of experiment: Effect of inhibitors on induction of CIGR1 and CIGR2 genes by GA3 in cultured rice cells. The following applies: inhibitor added ten minutes before; okadaic acid 1 μM, lavendustin A 30 μM, K-252a 20 μM. The class given is cell-based. The protocol: as §1, §2
A further assay has as its system α-amylase. The following applies: aleurone layer of wheat; listed as K252a; cited from earlier work.
For assay [3], the system named is elicitor-responsive genes. The following applies: pretreatment with K-252a; suspension-cultured rice cells; cited from earlier work.

Regarding `COC(=O)[C@@]1(O)C[C@H]2O[C@]1(C)n1c3ccccc3c3c4c(c5c6ccccc6n2c5c31)C(=O)NC4` [K-252-A], the “inhibition of induction of both genes by chitin heptamer” value in assay [1] is reported as “almost completely”. Besides, the “inhibition of induction of both genes by GA3” value in assay [2] is “almost completely”. Besides, the “inhibition of gibberellin induction of α-amylase” value with α-amylase is “hardly inhibited”. For the same compound, the “inhibition of induction of expression of elicitor-responsive genes” value in assay [3] is recorded as “strongly inhibited”.

Values taken from patent publication US20050034189A1, “Chitin oligosaccharide elicitor- and gibberellin-responsive genes in plants, and uses thereof” (National Institute of Agrobiological Sciences, priority 2001, published 2005).
